Experimental data: a melting point compilation (Tetko et al.; mined from patent text by program, amines drawn as free bases though some values may be those of a salt)

Structure (SMILES)	melting point [°C]
CCOC(=O)c1ccc(OCCCCCCCCCCC(C(=O)CC)C(=O)CC)cc1	45 to 46
COc1c(Br)cc(Br)cc1C1(C#N)CCCCC1	100 to 102
c1ccc(-c2cc3ccccc3s2)nc1	124 to 126
COC(=O)[C@H](O)[C@@H](NS(=O)(=O)c1c2ccccc2cc2ccccc12)c1ccccc1	98 to 102
Cc1onc(-c2ccc(Cl)cc2)c1CCl	91 to 92
C=CS(=O)(=O)Nc1c(C)cc(C)cc1C	117 to 120
CCOc1ccc(C=O)cc1CCl	74.5 to 75.5
O=C1c2ccccc2C2(O)Oc3c(ccc4ccccc34)C12O (stereo not given)	216 to 218
O=C(Nc1ccc([N+](=O)[O-])cc1Cl)c1ccc(C(=O)Nc2ccc([N+](=O)[O-])cc2Cl)cc1	339
CCCc1nc2c(N)nc(C)c(C)c2n1CCCCS(N)(=O)=O	167 to 169
Nc1ncc(-c2nc(N3CCOCC3)c3sc(NS(=O)(=O)c4cccc(C=CC(=O)NO)c4)cc3n2)cn1	> 300
Cc1ccc(S(=O)(=O)CCCc2c[nH]c([N+](=O)[O-])n2)cc1	108 to 111
CS(=O)(=O)c1ccc(-c2cccn2-c2ccc(Cl)c(Cl)c2)cc1	139 to 142
Cn1nccc1CCS(=O)Cc1ccc(OCc2coc(/C=C/c3ccc(C(F)(F)F)cc3)n2)cc1 (stereo not given)	172 to 174
CNc1ccc2[nH]ncc2c1	144 to 146
CCCCNS(=O)(=O)CC(O)C(O)C(CC1CCCCC1)NC(=O)c1ccc(O)nc1 (stereo not given)	247 to 252
CN(C)S(=O)(=O)c1cc([N+](=O)[O-])c(N)c([N+](=O)[O-])c1	169 to 170
CC(Oc1ccc(OC(F)(F)F)cc1)c1ccnc2ncnn12 (stereo not given)	91 to 93
O=C(Nc1ccccc1Sc1ccccc1)N[C@@H](Cc1ccc(NC(=O)c2c(Cl)cccc2Cl)cc1)C(=O)O	220
O=C(O)CC1CCC2(CC1)OCCO2	110 to 113
O=C(O)CCCCCCC1C(=O)CC(=O)C1=O (stereo not given)	102 to 104
Oc1ccc2nc(Nc3ccccc3)cnc2c1	211 to 213
CCO[C@@H](C)c1nnc([C@H](C)OCC)n1N[C@H](CC)C(OC)OC	88
OC(c1ccc(Oc2ccc(Cl)cc2Cl)cc1)C(F)n1cncn1 (stereo not given)	107 to 108

Structure (SMILES)	melting point [°C]
CCCCc1nc2c(N)nc3ccccc3c2n1CCCCN1CCCS1(=O)=O	173 to 176
CCCCc1nc2ncccc2[nH]1	80
CN1CCN(c2nccnc2Cl)CC1	34 to 36
Nc1nc(N)nc(C2CCN(c3ccccc3)CC2)n1	202 to 204
O=C1C(Cc2ccccc2Cl)c2cc([N+](=O)[O-])ccc2ON1CCO (stereo not given)	108 to 110
O=C(O)CCCOc1cc(-c2ccccc2)nc2ccccc12	264
Clc1cc2nc(Cl)c(N3CCNCC3)nc2cc1Cl	> 300
CSc1nc(C)c(CCN2CC=C(c3c[nH]c4ccccc34)CC2)c(=O)n1C	245 to 246
Cc1nc(-n2cc(CCCc3ccccc3)nn2)sc1C(=O)NCc1cccnc1	108 to 110
O=C(NCCNCc1ccccc1)c1ccc(Cl)cn1	45 to 46
Cc1ccc(C(c2ccc(C)cc2)C2CN(Cc3ccc(O)cc3)CCC2=O)cc1 (stereo not given)	156 to 157
CCCc1cc(O)nc(NCC)n1	108 to 110
CN1Cc2c(C(N)=NO)ncn2-c2ccc(F)c(Cl)c2C1=O	228 to 231
CC(=O)Oc1ccc(CC2SC(=O)N(C(c3ccccc3)(c3ccccc3)c3ccccc3)C2=O)cc1 (stereo not given)	152 to 156
COc1ccc2c(c1)C(OC)(c1ccccc1)OC21CCN(Cc2ccccc2)CC1 (stereo not given)	129 to 133
O=[N+]([O-])c1ccc(SNCCO)c(C(Cl)(Cl)Cl)c1	85
Cc1ccccc1CN1CCN(C2=NC3(C=CC(=O)C=C3)C(c3ccccc3)=C2)CC1	193
COc1cc(CNC(=O)c2nc3scc(COCc4ccc(C(=O)O)cc4)c3c(=O)[nH]2)ccn1	240 to 242
O=C(O)CCOc1ccc(CCNC(=O)C2Cc3ccccc3N2S(=O)(=O)c2ccc(-c3cccc(C(F)(F)F)c3)cc2)cc1 (stereo not given)	70
CCc1nc2c(cnn2CC)c(NC2CCOCC2)c1CNC(=O)c1cccc(C(=O)NCc2ccc(F)c(-c3cccc(CN4CCCCC4)c3)c2)c1	128 to 131
CC(C)(Cc1c(Sc2ccccc2)c2cc(-c3ccccc3)ccc2n1Cc1ccc(Cl)cc1)C(=O)O	182 to 183
CNCC#CC1=Cc2ccccc2Sc2ccc(Cl)cc21	92 to 94
CCOC(=O)Cc1nn(Cc2ccc(Br)c(Cl)c2)c(=S)c2ccccc12	124 to 126

Next, values leading:

melting point [°C]	Structure (SMILES)
214 to 215	O=C(O)c1cccc(-c2ccc(Cl)c3cc(Cc4ccc(F)c(F)c4)sc23)c1
203	CCCc1c(C(=O)NC2CC2)nnn1-c1ccc(C(=O)NCC)cc1O
124	O=C(NCCOc1cccc2c1OCC(CO)O2)c1ccc(F)cc1 (stereo not given)
209 to 211	O=C(O)C1CCN2c3ccc(Cl)cc3Oc3ccccc3C2C1 (stereo not given)
223	O=C(O)C=Cc1nn(-c2ccccc2)c2c1CCC2
155 to 156	CC(C)(C)OC(=O)N1CC(=O)Nc2cccc(F)c21
198	Cc1ccc(C(=O)N(C)Cc2cccc(-c3ccc(CC4SC(=O)NC4=O)cc3)c2)cc1 (stereo not given)
142 to 143	CCOC(=O)c1cn(-c2cc(C)on2)cn1
186 to 188	Cc1nc(C(=O)O)c(C(=O)NC(C)(C)C)o1
186 to 191	O=C(Nc1ccccc1C(=O)O)c1cccc(OC(F)F)c1
304 to 306	COc1ccc2c(=O)c(C(N)=O)cn(C)c2c1
197 to 198	CC(C)(C)OC(=O)C(C1NC(C(=O)OCc2ccccc2)C2(CCSCC2)S1)N1C(=O)c2ccccc2C1=O (stereo not given)
197	CC(C)c1ccc(S(=O)(=O)n2c(Cc3ccc(C(=O)O)c(F)c3)cc3cc(C(F)(F)F)ccc32)cc1
130 to 133	O=C(C/C=C/c1ccccc1)Nc1cccc(-n2ccnc2)c1
136 to 137	CC/C(=C\C=C\C(=O)O)c1ccc(OC)cc1
143 to 145	Cc1cc(CC(=O)OC(C)(C)C)ccc1NC(=O)Nc1ccccc1
118 to 120	CCOC(=O)Cn1c2c(c3c(Cl)ccc(Cl)c31)CCN(C(=O)OC(C)(C)C)CC2
280 to 281	Cc1nc2cc(NC(=O)c3cc4cc(C(F)(F)F)ccc4n3Cc3cccc(F)c3)ccn2c1C
160	CS(=O)c1cc(CCC(=O)OC(C)(C)C)nc(-c2nc(=O)c3ccccc3s2)c1 (stereo not given)
105 to 106	CCCCc1cnc(NCCCOc2cccc(CN3CCCCC3)c2)[nH]c1=O
141 to 148	C[C@H]1Oc2ccc(F)cc2NC(=O)[C@H]1NC(=O)OC(C)(C)C
153	CC(C)(C)NCC(O)COc1ccc2c(=O)cc(-c3cc(O)cc(O)c3)oc2c1 (stereo not given)
92 to 94	CCN1CCc2c([nH]c3ccccc23)C1CNC(=O)OCc1ccccc1 (stereo not given)
217 to 219	O=C(NNC(=O)c1ccccc1Cl)c1ccccc1Cl
132 to 134	Cc1c(C)c2c(c(C)c1NC(=O)CC(C)(C)C)C(c1ccc(C(C)(C)O)cc1)CO2 (stereo not given)
213 to 215	CC(=O)C1=C(O)C(=C(C)Nc2ccc(OC(N)=O)cc2)C(=O)OC1=O
227 to 229	Cc1c(-c2ccc(O)c(F)c2)sc(C=O)c1-c1ccc(O)cc1

melting point [°C]	Structure (SMILES)
78	CCCCc1nc(Cl)c(CC(=O)OCC)c(Cc2ccc(C(=O)OC)cc2)n1
122 to 124	COc1ccc(C(O)CN2CCN(c3cccccc3=O)CC2)cc1OC (stereo not given)
247	Cn1nnc(NC(=O)C2c3ccccc3Oc3ccccc32)n1
169 to 172	O=C(Nc1ccc(Cl)cc1)NS(=O)(=O)c1ccc2c(c1)CCC2
260 to 262	O=C(O)c1cc2ccccc2c(=O)s1
144	CCCn1nc(CC)c(C(=O)OC)c1Cc1ccc(-c2ccccc2S(N)(=O)=O)cc1
171 to 173	CP(C)(=O)COC(=O)c1ccc(-n2c(-c3ccccc3)cc3c2-c2ccccc2CC3)cc1
84 to 87	CCCc1c(OCCOc2ccccc2C(=O)OC)ccc(C(C)=O)c1O
172 to 173	O=[N+]([O-])c1ccc(S(=O)(=O)Nc2cccc(F)c2)c([N+](=O)[O-])c1
79 to 82	COc1ccc(C2=C(c3c4n(c5ccccc35)CCC(COC(C)=O)C4)C(=O)OC2=O)cc1 (stereo not given)
197	COC(=O)COc1ccc(NC(=O)/C=C/c2ccc(C#N)cc2)cc1
232 to 235	O=c1c(C2=Nc3ccccc3S(=O)(=O)N2)c(O)c2ccccc2n1CC1CCCCC1
247 to 248	O=C(O)c1oc2ccc(Cl)cc2c1-c1ccccc1
154 to 158	COc1cc2cc(/C=C/C#N)sc2cc1OC
211 to 213	CCC(CC)CNC(=O)c1ccc(CN2C(=O)C3(COc4cc5c(cc43)CCO5)c3ccccc32)cc1 (stereo not given)
88 to 90	CC(C)(C)c1cc(OCCCCCCC(=O)O)cc(C(C)(C)C)c1
94 to 95	CCOC(=O)C(=O)c1c(C(=O)OCC)n(C)c2cc(Cl)ccc12
213 to 214	COc1ccc(Oc2ccc3c(c2)SC(c2ccc(OC)cc2)C(O)C(=O)N3)cc1 (stereo not given)
104 to 110	COC(=O)c1ccc2c(c1)Sc1ccccc1N=C2
60 to 65	CCOP(=O)(/C=C/c1ccc(C(=O)OC)cc1)OCC
99 to 101	CC(C)c1nc(Cl)nc(-c2ccc(F)cc2)c1Br
> 300	NCCc1c2ccccc2n2c1[nH]c(=O)c1ccccc12
131	COc1ccc(CN(C)CCCCc2ccc(NC(=O)c3cccc4c(=O)c5cccc(F)c5[nH]c34)cc2)cc1OC
155 to 156	CCOC(=O)C(C)(C)Sc1ncnc2c(O)n(C)nc12
193 to 194	COc1ccc(CCOc2ccnc(-c3cccc(C(=O)O)c3)n2)cc1OC
255 to 257	NC(=O)c1cc(-c2ccc(Cl)cc2)sc1N
